PMC8119466, “A screen of FDA-approved drugs identifies inhibitors of protein tyrosine phosphatase 4A3 (PTP4A3 or PRL-3)” (Scientific Reports, 2021)
Where a name gives a salt, the structure may show the parent alone. Read-outs that look alike come from different tables or passages of the source.

Experiments:
Assay type in all cases: biochemical
recombinant PRL-1 = molecular target: T1, recombinant PRL-1 (Homo sapiens, UniProt Q93096); test: In vitro phosphatase assay (DiFMUP hydrolysis), PRL-1; note: test concentration or dose not given here
T1 construct: 6xHis (N, cleaved yes); made in house; host or cells: E. coli One Shot BL21 Star
T1 sequence (Q93096 1-173): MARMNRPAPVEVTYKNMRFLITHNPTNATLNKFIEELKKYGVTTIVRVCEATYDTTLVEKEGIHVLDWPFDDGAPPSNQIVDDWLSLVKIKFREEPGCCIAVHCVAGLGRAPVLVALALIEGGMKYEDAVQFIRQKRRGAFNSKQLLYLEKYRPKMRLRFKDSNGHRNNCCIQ

recombinant PRL-2 = molecular target: T2, recombinant PRL-2 (Homo sapiens, UniProt Q12974); test: In vitro phosphatase assay (DiFMUP hydrolysis), PRL-2;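 note: PRL-2 activity read as DiFMUP hydrolysis after 20 min at room temperature with drug, enzyme first pre-reduced at 4 °C for 20 min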
T2 construct: 6xHis (N, cleaved yes); made in house; host or cells: E. coli One Shot BL21 Star
T2 sequence (Q12974 1-167): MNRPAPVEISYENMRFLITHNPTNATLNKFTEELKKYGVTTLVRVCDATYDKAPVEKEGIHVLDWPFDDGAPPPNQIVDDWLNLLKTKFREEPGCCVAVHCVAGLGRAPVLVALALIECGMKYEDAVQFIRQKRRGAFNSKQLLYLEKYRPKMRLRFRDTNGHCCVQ

recombinant PRL-3 = molecular target: T3, recombinant PRL-3 (Homo sapiens, UniProt O75365); test: In vitro phosphatase assay (DiFMUP hydrolysis), PRL-3; note: test concentration or dose not given here
T3 construct: 6xHis (N, cleaved yes); made in house; host or cells: E. coli One Shot BL21 Star
T3 sequence (O75365 whole entry): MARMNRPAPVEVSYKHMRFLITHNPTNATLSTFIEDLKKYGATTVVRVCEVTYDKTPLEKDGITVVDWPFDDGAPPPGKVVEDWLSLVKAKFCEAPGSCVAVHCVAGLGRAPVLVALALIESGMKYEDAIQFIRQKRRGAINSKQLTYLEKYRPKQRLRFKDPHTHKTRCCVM

[1] = FDA-approved drug screen, compared to DMSO
[2] = FDA-approved drug screen, activity compared to DMSO

Row | Structure (SMILES) | % Phosphatase Activity (compared to DMSO) PRL-1 (recombinant PRL-1; [1]) [%] | % Phosphatase Activity (compared to DMSO) PRL-2 (recombinant PRL-2; [1]) [%] | % Phosphatase Activity (compared to DMSO) PRL-3 (recombinant PRL-3; [1]) [%] | other results
1 | CC(C)(Oc1ccc(C(=O)c2ccc(Cl)cc2)cc1)C(=O)O [Fenofibric acid] | 104 | 122 | 109 | 
2 | C[N+]1(C)[C@@H]2C[C@@H](OC(=O)C(O)(c3cccs3)c3cccs3)C[C@H]1[C@@H]1O[C@@H]12 [Tiotropium Bromide hydrate] |  |  |  | % Phosphatase Activity (compared to DMSO) PRL-1 (recombinant PRL-1; [2]): 95%; % Phosphatase Activity (compared to DMSO) PRL-2 (recombinant PRL-2; [2]): 115%; % Phosphatase Activity (compared to DMSO) PRL-3 (recombinant PRL-3; [2]): 84%
3 | CC(C)NCC(O)COc1ccc(CCOCC2CC2)cc1 (stereo not drawn) [Betaxolol] |  |  |  | % Phosphatase Activity (compared to DMSO) PRL-1 (recombinant PRL-1): 109%; % Phosphatase Activity (compared to DMSO) PRL-2 (recombinant PRL-2): 124%; % Phosphatase Activity (compared to DMSO) PRL-3 (recombinant PRL-3): 80%
4 | N[C@@H](Cc1cc(I)c(Oc2cc(I)c(O)c(I)c2)c(I)c1)C(=O)O [L-Thyroxine] | 79 | 92 | 81 | 
5 | Cc1cnc(NC(=O)C2=C(O)c3ccccc3S(=O)(=O)N2C)s1 [Meloxicam] | 74 | 75 | 83 | 
6 | NC(=O)c1ncn([C@@H]2O[C@H](CO)[C@@H](O)[C@H]2O)n1 [Ribavirin] | 105 | 108 | 83 | 
7 | O=C([O-])C(O)[C@H](O)[C@@H](O)[C@H](O)[C@H](O)CO.O=C([O-])C(O)[C@H](O)[C@@H](O)[C@H](O)[C@H](O)CO.[Ca+2] (stereo partly drawn) [Calcium Gluceptate] | 114 | 104 | 107 | 
8 | Cc1cc2c(cc1S(N)(=O)=O)S(=O)(=O)CCC2 [Meticrane] | 104 | 94 | 83 | 
9 | Nc1ncn([C@@H]2O[C@H](CO)[C@@H](O)[C@H]2O)c(=O)n1 [Azacitidine] | 78 | 93 | 89 | 
10 | CNC(=O)c1cc(Oc2ccc(NC(=O)Nc3ccc(Cl)c(C(F)(F)F)c3)cc2)ccn1 [Sorafenib Tosylate] |  |  |  | % Phosphatase Activity (compared to DMSO) PRL-1 (recombinant PRL-1; [2]): 85%; % Phosphatase Activity (compared to DMSO) PRL-2 (recombinant PRL-2; [2]): 93%; % Phosphatase Activity (compared to DMSO) PRL-3 (recombinant PRL-3; [2]): 73%
11 | CCc1oc2ccccc2c1C(=O)c1cc(Br)c(O)c(Br)c1 [Benzbromarone] | 63 | 56 | 51 | 
12 | CC(C)(C)c1cc(C(C)(C)C)c(NC(=O)c2c[nH]c3ccccc3c2=O)cc1O [Ivacaftor (VX-770)] | 95 | 87 | 77 | 
13 | O=C1C(O)=C([C@H]2CC[C@H](c3ccc(Cl)cc3)CC2)C(=O)c2ccccc21 [Atovaquone] | 96 | 88 | 90 | 
14 | CC1=C(/C=C/C(C)=C/C=C/C(C)=C/C(=O)O)C(C)(C)CCC1 [Tretinoin] |  |  |  | % Phosphatase Activity (compared to DMSO) PRL-1 (recombinant PRL-1; [2]): 78%; % Phosphatase Activity (compared to DMSO) PRL-2 (recombinant PRL-2; [2]): 77%; % Phosphatase Activity (compared to DMSO) PRL-3 (recombinant PRL-3; [2]): 46%
15 | C=C1C[C@@H]2[C@H](CC[C@]3(C)C(=O)CC[C@@H]23)[C@@]2(C)C=CC(=O)C=C12 [Exemestane] | 95 | 116 | 87 | 
16 | Cc1cc(O)cc(C)c1Cl [Chloroxylenol] | 93 | 112 | 92 | 
17 | NC[C@@H]1O[C@H](O[C@H]2[C@@H](O)[C@H](O[C@@H]3[C@@H](O)[C@H](N)C[C@H](N)[C@H]3O[C@H]3O[C@H](CO)[C@@H](O)[C@H](O)[C@H]3N)O[C@@H]2CO)[C@H](N)[C@@H](O)[C@@H]1O [Paromomycin Sulfate] | 93 | 110 | 112 | 
18 | Nc1ccc(C(=O)NCC(=O)[O-])cc1.O.[Na+] [Sodium 4-aminohippurate Hydrate] |  |  |  | % Phosphatase Activity (compared to DMSO) PRL-1 (recombinant PRL-1; [2]): 84%; % Phosphatase Activity (compared to DMSO) PRL-2 (recombinant PRL-2; [2]): 87%; % Phosphatase Activity (compared to DMSO) PRL-3 (recombinant PRL-3; [2]): 84%
19 | Nc1nc(=O)n([C@@H]2CS[C@H](CO)O2)cc1F [Emtricitabine] |  |  |  | % Phosphatase Activity (compared to DMSO) PRL-1 (recombinant PRL-1): 104%; % Phosphatase Activity (compared to DMSO) PRL-2 (recombinant PRL-2): 97%; % Phosphatase Activity (compared to DMSO) PRL-3 (recombinant PRL-3): 75%

Row | Structure (SMILES) | % Phosphatase Activity (compared to DMSO) PRL-1 (recombinant PRL-1; [1]) [%] | % Phosphatase Activity (compared to DMSO) PRL-2 (recombinant PRL-2; [1]) [%] | % Phosphatase Activity (compared to DMSO) PRL-3 (recombinant PRL-3; [1]) [%] | other results
20 | CN(C)CC(c1ccc(O)cc1)C1(O)CCCCC1 (stereo not drawn) [Desvenlafaxine Succinate] | 106 | 103 | 80 | 
21 | CCN(CC)CC#CCOC(=O)C(O)(c1ccccc1)C1CCCCC1 (stereo not drawn) [Oxybutynin] | 91 | 99 | 118 | 
22 | COc1ccc(CN=c2[nH]c(N3CCC[C@H]3CO)ncc2C(=O)NCc2ncccn2)cc1Cl [Avanafil] | 98 | 112 | 97 | 
23 | CC[C@H]1OC(=O)[C@H](C)[C@@H](O[C@H]2C[C@@](C)(OC)[C@@H](O)[C@H](C)O2)[C@H](C)[C@@H](O[C@@H]2O[C@H](C)C[C@H](N(C)C)[C@H]2O)[C@](C)(O)C[C@@H](C)[C@@H]2N[C@@H](COCCOC)O[C@H]([C@H]2C)[C@]1(C)O [Dirithromycin] | 90 | 94 | 74 | 
24 | C[C@H]1c2cccc(O)c2C(=O)C2=C(O)[C@]3(O)C(=O)C(C(N)=O)=C(O)[C@@H](N(C)C)[C@@H]3[C@@H](O)[C@@H]21 [Doxycycline HCl] | 83 | 83 | 73 | 
25 | Nc1nc(O)c2ncn(COC(CO)CO)c2n1 [Ganciclovir] | 90 | 98 | 99 | 
26 | O=[N+]([O-])c1ccc(O)c2ncccc12 [Nitroxoline] | 58 | 48 | 49 | 
27 | Cc1c(C(N)=O)cc([N+](=O)[O-])cc1[N+](=O)[O-] [Dinitolmide] | 107 | 117 | 90 | 
28 | CCOC(=O)[C@H](CCc1ccccc1)N[C@@H](C)C(=O)N1Cc2ccccc2C[C@H]1C(=O)O [Quinapril HCl] | 92 | 106 | 80 | 
29 | CN(Cc1cc(Br)cc(Br)c1N)C1CCCCC1 [Bromhexine HCl] | 95 | 122 | 86 | 
30 | Cc1c(-c2cnccn2)ssc1=S [Oltipraz] |  |  |  | % Phosphatase Activity (compared to DMSO) PRL-1 (recombinant PRL-1): 90%; % Phosphatase Activity (compared to DMSO) PRL-2 (recombinant PRL-2): 73%; % Phosphatase Activity (compared to DMSO) PRL-3 (recombinant PRL-3): 76%
31 | O=C(CCCN1CCN(c2ccccn2)CC1)c1ccc(F)cc1 [Azaperone] | 96 | 96 | 88 | 
32 | COc1cc([C@@H]2c3cc4c(cc3[C@@H](O[C@@H]3O[C@@H]5CO[C@@H](c6cccs6)O[C@H]5[C@H](O)[C@H]3O)[C@H]3COC(=O)[C@H]23)OCO4)cc(OC)c1O [Teniposide] |  |  |  | % Phosphatase Activity (compared to DMSO) PRL-1 (recombinant PRL-1; [2]): 95%; % Phosphatase Activity (compared to DMSO) PRL-2 (recombinant PRL-2; [2]): 98%; % Phosphatase Activity (compared to DMSO) PRL-3 (recombinant PRL-3; [2]): 97%
33 | CCN1CCN(C(=O)N[C@@H](C(=O)N[C@@H]2C(=O)N3[C@@H]2SC(C)(C)[C@@H]3C(=O)O)c2ccccc2)C(=O)C1=O [Piperacillin Sodium] | 86 | 91 | 73 | 
34 | CCc1ccc(CCOc2ccc(CC3SC(=O)NC3=O)cc2)nc1 (stereo not drawn) [Pioglitazone HCl] | 81 | 100 | 86 | 
35 | CCC[C@H](NC(=O)[C@@H]1[C@H]2CCC[C@H]2CN1C(=O)[C@@H](NC(=O)[C@@H](NC(=O)c1cnccn1)C1CCCCC1)C(C)(C)C)C(=O)C(=O)NC1CC1 [Telaprevir (VX-950)] |  |  |  | % Phosphatase Activity (compared to DMSO) PRL-1 (recombinant PRL-1; [2]): 95%; % Phosphatase Activity (compared to DMSO) PRL-2 (recombinant PRL-2; [2]): 104%; % Phosphatase Activity (compared to DMSO) PRL-3 (recombinant PRL-3; [2]): 92%
36 | COc1ccccc1Oc1c(NS(=O)(=O)c2ccc(C(C)(C)C)cc2)nc(-c2ncccn2)nc1OCCO [Bosentan] | 83 | 84 | 71 | 
37 | O=C(c1ccccc1)c1ccc2n1CCC2C(=O)O (stereo not drawn) [Ketorolac] | 98 | 97 | 78 | 
38 | CCOC(=O)[C@H](CCc1ccccc1)N[C@@H](C)C(=O)N1[C@H](C(=O)O)C[C@@H]2CCC[C@@H]21 [Ramipril] | 84 | 86 | 93 | 
